Assay results from patent US20190076482A1, “ENHANCED ORGANOID FORMATION AND INTESTINAL STEM CELL RENEWAL” (THE JOHNS HOPKINS UNIVERSITY, priority 2016, published 2019).

Tests used:
[1] = system: Hmga1 organoids; assay: Wnt inhibitor treatment of Hmga1 organoids; type: cell-based, mouse
From the text: (§1) To better define the role of Hmga1 in regulating Wnt signaling, we cultured Hmga1 organoids in the absence of the Wnt receptor agonist, R-spondin 1 (R-spo1), which is essential for organoid formation in this culture system. R-spo1 is secreted by intestinal stromal cells and binds to the Lgr5 receptor to activate Wnt signaling. The inventors discovered a dramatic difference in the response of Hmga1 organoids to the absence of R-spo1 as compared to the WT controls: Hmga1 organoids continued to survive and proliferate after 2 weeks, while the WT organoids lost their 3D structural organization and ultimately died by day 5 (FIG. 9). […] To further test the link between Hmga1 and Wnt, we treated organoids with the Wnt inhibitors, C59 and IWP-2, both of which block Wnt-mediated transcription and cell proliferation by inhibiting porcupine (PORCN), a protein required for Wnt palmitoylation, secretion, and biological activity. […] The blunted response of Hmga1 organoids to Wnt inhibition further highlights the ability of Hmga1 to amplify Wnt signaling to maintain and support ISCs.
Organoid culture and replating assay. Mouse organoids were established and maintained from isolated crypts of the proximal small intestine as described previously^1-7. […]

[2] = system: WT organoids; assay: Wnt inhibitor treatment of WT control organoids; type: cell-based, mouse; conditions: for bud formation: controls
From the text: as §1
Organoid culture and replating assay. Mouse organoids were established and maintained from isolated crypts of the proximal small intestine as described previously^1-7. The basic culture medium (advanced Dulbecco's modified Eagle's medium/F12 supplemented with penicillin/streptomycin, 10 mmol/l HEPES, 13 Glutamax, 13 B27 [all from Life Technologies], and 1 mmol/l N-acetylcysteine [Sigma]) was supplemented with 50 ng/ml murine recombinant EGF (Peprotech), R-spondin 1 (1 μg/ml), and Noggin (10 ng/ml). Wnt inhibitors C59 and IWP-2 are commercially available (Abcam). Conditioned media was produced using HEK293T cells stably transfected with HA-mouse Rspo1-Fc (a gift from Calvin Kuo, Stanford University). Advanced DMEM/F12 supplemented with penicillin/streptomycin, 10 mmol/1 HEPES, and 13 Glutamax was conditioned for 1 week. For the replating assay, an equal number of organoids from each model were mechanically dispersed with a 10 mL pipet after 3-5 days in culture and replated using the conditions described above.

Row | SMILES | organoid survival ([1]; up to 2μM of C59 (FIG. 4f)) | organoid proliferation ([2]; WT controls, exposure to as little as 0.5 μM (FIG. 4f)) | organoid survival and bud formation ([1]; 1 μM of IWP-2 (FIG. 4f)) | bud formation ([2]; 0.5 μM (FIG. 4f)) | bud formation ([2]; 1 μM IWP-2 (FIG. 4f))
1 | Cc1cc(-c2ccc(CC(=O)Nc3ccc(-c4cccnc4)cc3)cc2)ccn1 [C59] | able to survive | failed to proliferate |  |  | 
2 | Cc1ccc2nc(NC(=O)CSc3nc4c(c(=O)n3-c3ccccc3)SCC4)sc2c1 [IWP-2] |  |  | survive and form buds | few buds | no buds
